Several values for one entry are separate records, joined by “and”; a condition that tells them apart may be missing. Identical values can stand only once.
Columns and labels:
Phakopsora pachyrhizi [1] = experiment: Glasshouse pot trial: efficacy on soybean rust on soybean (Glycine max), visual estimation of degree of infection on leaves; assay type: in vivo
Description: (§1) In the tables presented below, the following terms have the following meaning:
Glasshouse pot trials were conducted to evaluate the effect and efficacy of silthiofam on soybean rust disease on soybean (Glycine max).
The trial was divided in 11 treatments. In 4 of the treatments, silthiofam was applied in different amounts.
(§2) Silthiofam compositions used in this trial were prepared from the suspension concentrate containing 125 g/L of silthiofam, diluted with water to predetermined concentration and sprayed on the plants in the predetermined amounts.
In two of the treatments, silthiofam was applied in combination with additional ingredients.
First combination was of silthiofam and chitosan, wherein silthiofam was applied in an amount of 250 g/ha on the plant first and chitosan was applied subsequently in an amount of 200 g/ha.
Second combination was a combination of silthiofam and tagatose, wherein silthiofam was applied in an amount of 250 g/ha simultaneously with tagatose in an amount of 200 g/ha.
Further 6 treatments were current market available treatments of soybean rust applied in the label prescribed dose, wherein the compositions used were prepared from commercially available products prepared according to the respective label instructions and sprayed on the plants.
One treatment of the trial consisted of fungi inoculated plants which received no treatment.
Soybean plants were treated two times with silthiofam and other treatments. First treatment was applied when soybean plants reached stage BBCH16 and the second treatment was applied when soybean plants reached stage BBCH61. Growth stages were defined according to Compendium of Growth Stage Identification Keys for Mono- and Dicotyledonous Plants, Extended BBCH scale, 2nd Edition 1997, ISBN 3-9520749-3-4.
After silthiofam and other treatments were applied first time, plants were inoculated with Phakopsora pachyrhizi spores and evaluation of leaves condition and disease spread was done every 7 days.
(§3) Method used for evaluation of disease spread was visual estimation of degree of infection on leaves.
The experimental design of the pot trial was randomized design with 4 pot replications per treatment applied, wherein six soybean plants were planted per pot.
Treatments were the following:
Treatment 1: Plant inoculated with P. pachyrhizi, no treatment applied
Treatment 2: Treatment with flutriafol and azoxystrobin mixture, applied in concentration of 31.25 g flutriafol/ha and 37.5 g azoxystrobin/ha
Treatment 3: Silthiofam treatment applied in 250 g silthiofam/ha
Treatment 4: Silthiofam treatment applied in 500 g silthiofam/ha
Treatment 5: Silthiofam treatment applied in 250 g silthiofam/ha and 200 g/ha of tagatose
Treatment 6: Silthiofam treatment applied in 250 g silthiofam/ha and 200 g/ha of chitosan
Treatment 7: Mancozeb applied in 1.68 kg mancozeb/ha
Treatment 8: Chlorothalonil applied in 626.4 g chlorothalonil/ha
Treatment 9: Azoxystrobin applied in 37.5 g azoxystrobin/ha
Treatment 10: Boscalid applied in 294 g boscalid/ha
Treatment 11: Prothioconazole and tebuconazole mixture applied as 42 g prothioconazole/ha and 84 g tebuconazole/ha

soybean rust disease = experiment: Field trial: efficacy on naturally infected soybean, visual estimation of degree of infection on leaves; assay type: in vivo, Glycine max
Description: as §1
Field trial was conducted to evaluate the effect and efficacy of silthiofam on soybean rust disease on soybean (Glycine max) wherein plants were naturally infected by the disease.
The trial was divided in the following […]:
one treatment where plants were left untreated and in which natural progression of the disease can be observed;
two treatments with silthiofam alone in different dosage amounts;
and four treatments where silthiofam was applied with other compounds, namely tagatose and chitosan in different dosage ratios.
Each treatment was applied on a plot of 6 ft*30 ft in size and was repeated in 4 replicates.
as §2
For each treatment, two applications of respective treatment were made with 19 days interval between. First application was made when soybean plant reached stage BBCH 64, and the second one when plant reached stage BBCH 73. Growth stages were defined according to Compendium of Growth Stage Identification Keys for Mono- and Dicotyledonous Plants, Extended BBCH scale, 2nd Edition 1997, ISBN 3-9520749-3-4.
as §3

Phakopsora pachyrhizi [2] = experiment: Glasshouse pot trial: efficacy on soybean rust on soybean (Glycine max), visual estimation of degree of infection on leaves; assay type: in vivo; settings: general statement; Phakopsora pachyrhizi and P. meibomiae

For `C=CCNC(=O)c1c([Si](C)(C)C)sc(C)c1C` [Silthiofam, N-allyl-4,5-dimethyl-2-(trimethylsilyl)thiophene-3-carboxamide], the “% efficacy” value (Phakopsora pachyrhizi [1]; silthiofam 250 g/ha, 7/7 d after first/last application, 19 d after planting, LEALOW) was 71.5% and 90.9% and 93.6% and 88.9%, the “% efficacy” value (Phakopsora pachyrhizi [1]; silthiofam 250 g/ha, 7/7 d after first/last application, 19 d after planting, LEAMID) was 93.4% and 100.0% and 81.9% and 85.0% and the “% efficacy” value (Phakopsora pachyrhizi [1]; silthiofam 250 g/ha, 7/7 d after first/last application, 19 d after planting, LEAUPP) was 100.0%. For the same compound, the “% efficacy” value (Phakopsora pachyrhizi [1]; silthiofam 250 g/ha, 14/14 d after first/last application, 26 d after planting, LEALOW) was 89.0% and 82.0% and 84.7% and 84.1%, the “% efficacy” value (Phakopsora pachyrhizi [1]; silthiofam 250 g/ha, 14/14 d after first/last application, 26 d after planting, LEAMID) was 95.0% and 91.2% and 92.0% and 89.4% and the “% efficacy” value (Phakopsora pachyrhizi [1]; silthiofam 250 g/ha, 14/14 d after first/last application, 26 d after planting, LEAUPP) was 100.0%. For the same compound, the “% efficacy” value (Phakopsora pachyrhizi [1]; silthiofam 250 g/ha, 21/21 d after first/last application, 33 d after planting, LEALOW) was 78.0% and 76.0% and 82.0% and 80.0%, the “% efficacy” value (Phakopsora pachyrhizi [1]; silthiofam 250 g/ha, 21/21 d after first/last application, 33 d after planting, LEAMID) was 92.0% and 89.0% and 90.0% and 88.0% and the “% efficacy” value (Phakopsora pachyrhizi [1]; silthiofam 250 g/ha, 21/21 d after first/last application, 33 d after planting, LEAUPP) was 100.0%. For the same compound, the “% efficacy” value (Phakopsora pachyrhizi [1]; silthiofam 250 g/ha, 28/7 d after first/last application, 40 d after planting, LEALOW) was 82.0% and 80.0% and 84.0%, the “% efficacy” value (Phakopsora pachyrhizi [1]; silthiofam 250 g/ha, 28/7 d after first/last application, 40 d after planting, LEAMID) was 92.0% and 88.0% and 90.0% and the “% efficacy” value (Phakopsora pachyrhizi [1]; silthiofam 250 g/ha, 28/7 d after first/last application, 40 d after planting, LEAUPP) was 100.0%. For the same compound, the “% efficacy” value (Phakopsora pachyrhizi [1]; silthiofam 250 g/ha, 35/14 d after first/last application, 47 d after planting, LEAMID) was 78.0% and 82.0% and 80.0% and 84.0%, the “% efficacy” value (Phakopsora pachyrhizi [1]; silthiofam 250 g/ha, 35/14 d after first/last application, 47 d after planting, LEAUPP) was 94.5% and 98.0% and 95.5% and 92.9% and the “% efficacy” value (Phakopsora pachyrhizi [1]; silthiofam 250 g/ha, 42/21 d after first/last application, 54 d after planting, LEAMID) was 48.0% and 54.0% and 59.0% and 52.0%. The “% efficacy” value (Phakopsora pachyrhizi [1]; silthiofam 250 g/ha, 42/21 d after first/last application, 54 d after planting, LEAUPP) was 86.0% and 85.0% and 89.0%, the “% efficacy” value (Phakopsora pachyrhizi [1]; silthiofam 500 g/ha, 7/7 d after first/last application, 19 d after planting, LEALOW) was 85.8% and 95.5% and 93.6% and 97.3% and the “% efficacy” value (Phakopsora pachyrhizi [1]; silthiofam 500 g/ha, 7/7 d after first/last application, 19 d after planting, LEAMID) was 93.4% and 94.5% and 100.0%. For the same compound, the “% efficacy” value (Phakopsora pachyrhizi [1]; silthiofam 500 g/ha, 7/7 d after first/last application, 19 d after planting, LEAUPP) was 100.0%, the “% efficacy” value (Phakopsora pachyrhizi [1]; silthiofam 500 g/ha, 14/14 d after first/last application, 26 d after planting, LEALOW) was 92.0% and 90.0% and 94.7% and 91.9% and the “% efficacy” value (Phakopsora pachyrhizi [1]; silthiofam 500 g/ha, 14/14 d after first/last application, 26 d after planting, LEAMID) was 99.0% and 96.8% and 97.9%. The “% efficacy” value (Phakopsora pachyrhizi [1]; silthiofam 500 g/ha, 14/14 d after first/last application, 26 d after planting, LEAUPP) was 100.0%, the “% efficacy” value (Phakopsora pachyrhizi [1]; silthiofam 500 g/ha, 21/21 d after first/last application, 33 d after planting, LEALOW) was 89.0% and 86.0% and 92.0% and the “% efficacy” value (Phakopsora pachyrhizi [1]; silthiofam 500 g/ha, 21/21 d after first/last application, 33 d after planting, LEAMID) was 96.0% and 95.0% and 97.0%. For the same compound, the “% efficacy” value (Phakopsora pachyrhizi [1]; silthiofam 500 g/ha, 21/21 d after first/last application, 33 d after planting, LEAUPP) was 100.0%, the “% efficacy” value (Phakopsora pachyrhizi [1]; silthiofam 500 g/ha, 28/7 d after first/last application, 40 d after planting, LEALOW) was 88.0% and 90.0% and 85.0% and the “% efficacy” value (Phakopsora pachyrhizi [1]; silthiofam 500 g/ha, 28/7 d after first/last application, 40 d after planting, LEAMID) was 95.0% and 93.0% and 92.0%. The “% efficacy” value (Phakopsora pachyrhizi [1]; silthiofam 500 g/ha, 28/7 d after first/last application, 40 d after planting, LEAUPP) was 100.0%, the “% efficacy” value (Phakopsora pachyrhizi [1]; silthiofam 500 g/ha, 35/14 d after first/last application, 47 d after planting, LEAMID) was 92.0% and 89.0% and 90.0% and 86.0% and the “% efficacy” value (Phakopsora pachyrhizi [1]; silthiofam 500 g/ha, 35/14 d after first/last application, 47 d after planting, LEAUPP) was 98.9% and 100.0% and 90.9%. The “% efficacy” value (Phakopsora pachyrhizi [1]; silthiofam 500 g/ha, 42/21 d after first/last application, 54 d after planting, LEAMID) was 79.0% and 72.0% and 80.0% and 82.0%, the “% efficacy” value (Phakopsora pachyrhizi [1]; silthiofam 500 g/ha, 42/21 d after first/last application, 54 d after planting, LEAUPP) was 92.0% and 90.0% and 95.0% and 93.0% and the “% efficacy” value (soybean rust disease; silthiofam 125 g/ha, 14/14 d after first/last application, LEALOW) was 88.9% and 84.3% and 63.4% and 77.3%. The “% efficacy” value (soybean rust disease; silthiofam 125 g/ha, 14/14 d after first/last application, LEAMID) was 95.5% and 92.9% and 95.0% and 90.9%, the “% efficacy” value (soybean rust disease; silthiofam 125 g/ha, 14/14 d after first/last application, LEAUPP) was 0.0% and the “% efficacy” value (soybean rust disease; silthiofam 125 g/ha, 20/1 d after first/last application, LEALOW) was 68.2% and 56.0% and 64.1% and 69.1%. For the same compound, the “% efficacy” value (soybean rust disease; silthiofam 125 g/ha, 20/1 d after first/last application, LEAMID) was 83.3% and 78.2% and 80.4%, the “% efficacy” value (soybean rust disease; silthiofam 125 g/ha, 20/1 d after first/last application, LEAUPP) was 90.9% and 88.9% and 100.0% and 94.4% and the “% efficacy” value (soybean rust disease; silthiofam 125 g/ha, 27/8 d after first/last application, LEALOW) was 35.00% and 42.00% and 36.00%. For the same compound, the “% efficacy” value (soybean rust disease; silthiofam 125 g/ha, 27/8 d after first/last application, LEAMID) was 77.9% and 75.0% and 78.6% and 80.3%, the “% efficacy” value (soybean rust disease; silthiofam 125 g/ha, 27/8 d after first/last application, LEAUPP) was 89.3% and 85.7% and 93.3% and 95.2% and the “% efficacy” value (soybean rust disease; silthiofam 125 g/ha, 34/15 d after first/last application, LEALOW) was 45.0% and 35.0% and 52.0% and 55.0%. The “% efficacy” value (soybean rust disease; silthiofam 125 g/ha, 34/15 d after first/last application, LEAMID) was 72.0% and 67.0% and 72.7%, the “% efficacy” value (soybean rust disease; silthiofam 125 g/ha, 34/15 d after first/last application, LEAUPP) was 90.9% and 86.2% and 92.2% and the “% efficacy” value (soybean rust disease; silthiofam 250 g/ha, 14/14 d after first/last application, LEALOW) was 66.7% and 56.9% and 73.2% and 59.1%. The “% efficacy” value (soybean rust disease; silthiofam 250 g/ha, 14/14 d after first/last application, LEAMID) was 81.8% and 78.6% and 70.0% and 63.6%, the “% efficacy” value (soybean rust disease; silthiofam 250 g/ha, 14/14 d after first/last application, LEAUPP) was 0.0% and the “% efficacy” value (soybean rust disease; silthiofam 250 g/ha, 20/1 d after first/last application, LEALOW) was 60.2% and 45.3% and 57.7% and 65.4%. For the same compound, the “% efficacy” value (soybean rust disease; silthiofam 250 g/ha, 20/1 d after first/last application, LEAMID) was 68.8% and 67.3% and 78.4%, the “% efficacy” value (soybean rust disease; silthiofam 250 g/ha, 20/1 d after first/last application, LEAUPP) was 81.8% and 83.3% and 90.0% and 100.0% and the “% efficacy” value (soybean rust disease; silthiofam 250 g/ha, 27/8 d after first/last application, LEALOW) was 55.00% and 65.00% and 58.00% and 48.00%. The “% efficacy” value (soybean rust disease; silthiofam 250 g/ha, 27/8 d after first/last application, LEAMID) was 61.8% and 61.1% and 68.6% and 62.1%, the “% efficacy” value (soybean rust disease; silthiofam 250 g/ha, 27/8 d after first/last application, LEAUPP) was 82.1% and 77.1% and 83.3% and 88.1% and the “% efficacy” value (soybean rust disease; silthiofam 250 g/ha, 34/15 d after first/last application, LEALOW) was 25.0% and 22.0% and 30.0% and 35.0%. For the same compound, the “% efficacy” value (soybean rust disease; silthiofam 250 g/ha, 34/15 d after first/last application, LEAMID) was 62.0% and 58.0% and 56.8%, the “% efficacy” value (soybean rust disease; silthiofam 250 g/ha, 34/15 d after first/last application, LEAUPP) was 67.3% and 62.1% and 54.5% and 57.8% and the “activity against soybean rust causing fungi” value (Phakopsora pachyrhizi [2]) was “high activity”.
